According to patent US20220220128A1, “HETEROCYCLIC COMPOUNDS AS KINASE INHIBITORS, COMPOSITIONS COMPRISING THE HETEROCYCLIC COMPOUND, AND METHODS OF USE THEREOF” (JS Innopharm (Shanghai) Ltd, priority 2019, published 2022):

Legend:
human RET kinase = molecular target: T1, human RET kinase (Homo sapiens, UniProt P07949); test: RET Kinase Assay (LanthaScreen TR-FRET enzymatic assay); type: biochemical; conditions: 7 nM RET, 23 μM ATP
T1 construct: purchased Carna 08-159
How it was run: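 TR-FRET enzymatic read-out using 23 μM ATP, 3 μM FAM-P2 substrate and 7 nM human RET, after 15-min compound pretreatment at room temperature and a 1 h reaction at 28° C in HEPES pH 7.5 buffer. Percent of DMSO control fitted to nonlinear sigmoid curves for IC50.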

BAF3-KIF5B-RET cells = molecular target: T2, BAF3-KIF5B-RET cells (Homo sapiens, UniProt P07949); test: BAF3-KIF5B-RET Cell proliferation assay (CellTiter-Glo, 72 hours); type: cell-based; conditions: growth inhibition, read-out: BA/F3-KIF5B-RET Cellular activity
T2 construct: fused on or other part: P33176 (Kinesin-1 heavy chain)
T2 sequence (P07949 whole entry, change not shown, the tested form may be a part): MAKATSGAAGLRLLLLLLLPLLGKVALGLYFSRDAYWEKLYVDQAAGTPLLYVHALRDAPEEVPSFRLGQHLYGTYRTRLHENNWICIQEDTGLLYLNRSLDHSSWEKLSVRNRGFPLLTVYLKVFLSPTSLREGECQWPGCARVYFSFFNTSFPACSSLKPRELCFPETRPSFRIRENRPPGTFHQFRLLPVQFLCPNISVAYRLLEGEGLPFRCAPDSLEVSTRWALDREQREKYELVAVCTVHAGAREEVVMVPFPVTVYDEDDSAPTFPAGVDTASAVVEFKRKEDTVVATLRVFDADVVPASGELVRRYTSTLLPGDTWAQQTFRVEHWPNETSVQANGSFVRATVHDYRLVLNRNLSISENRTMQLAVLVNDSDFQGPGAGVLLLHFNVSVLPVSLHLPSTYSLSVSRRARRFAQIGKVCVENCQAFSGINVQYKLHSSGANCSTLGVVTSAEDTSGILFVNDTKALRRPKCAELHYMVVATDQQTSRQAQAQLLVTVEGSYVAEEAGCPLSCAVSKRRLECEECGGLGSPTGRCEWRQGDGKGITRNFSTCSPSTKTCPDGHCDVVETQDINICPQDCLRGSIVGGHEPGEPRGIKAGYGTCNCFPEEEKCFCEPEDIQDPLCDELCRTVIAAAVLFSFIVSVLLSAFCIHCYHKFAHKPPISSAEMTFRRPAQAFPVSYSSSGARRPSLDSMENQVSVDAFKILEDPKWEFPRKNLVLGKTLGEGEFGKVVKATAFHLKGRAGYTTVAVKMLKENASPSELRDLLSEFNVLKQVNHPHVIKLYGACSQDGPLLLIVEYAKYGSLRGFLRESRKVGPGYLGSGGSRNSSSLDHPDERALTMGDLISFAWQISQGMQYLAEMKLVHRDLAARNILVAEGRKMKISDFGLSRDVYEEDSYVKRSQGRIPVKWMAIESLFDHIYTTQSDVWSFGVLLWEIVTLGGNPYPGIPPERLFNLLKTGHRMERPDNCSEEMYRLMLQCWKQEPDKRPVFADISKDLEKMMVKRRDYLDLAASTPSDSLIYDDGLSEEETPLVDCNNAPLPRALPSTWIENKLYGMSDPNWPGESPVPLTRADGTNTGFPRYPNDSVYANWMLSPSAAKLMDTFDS
Experimental: Compounds disclosed herein were tested for the inhibition of RET by a cancer cell proliferation assay commonly known as CellTiter-Glo assay. In this assay, a complete media was prepared by adding 10% fetal bovine serum to RPMI-1640 medium (Life technology) for BAF3-FIF5B-RET cells. BAF3-KIF5B-RET cells were added to each of 88 wells of a 96 well plate at a seeding density of 2,000 cells/well/95 μL. The cells were allowed to attach to the plate by incubating at 37° C. for 24 hours. The compound was dissolved in DMSO (SIGMA). A solution of test compound was prepared in complete media by serial dilution to obtain the following concentrations: 20 μM, 6.67 μM, 2.22 μM, 0.74 μM, 0.25 μM, 0.082 μM, 0.027 μM, 0.0091 μM and 0.0030 μM. The test compound solution (5 μL) was added to each of 80 cell-containing wells. The final concentrations of the compound were following: 1 μM, 0.33 μM, 0.11 μM, 0.037 μM, 0.012 μM, 0.0041 μM, 0.0014 μM, 0.00046 μM and 0.00015 μM. The final concentration of DMSO is 0.1%. To the 8 remaining cell-containing wells, only complete media (containing 0.1% DMSO) was added to form a control group in order to measure maximal proliferation. To the remaining 8 empty wells, complete media was added to for a vehicle control group in order to measure background. The plates were incubated at 37° C. for 72 hours. 50 μl of CellTiter-Glo® Reagent was added to each well. Mix contents for 2 minutes on an orbital shaker to induce cell lysis. Incubate at room temperature for 10 minutes to stabilize luminescent signal. Record luminescence on Paradigm. Cell viability (CV %) was calculated relative to vehicle (DMSO) treated control wells. The IC50 was calculated using GraphPad Prism.

T1 sequence (P07949 29-1114): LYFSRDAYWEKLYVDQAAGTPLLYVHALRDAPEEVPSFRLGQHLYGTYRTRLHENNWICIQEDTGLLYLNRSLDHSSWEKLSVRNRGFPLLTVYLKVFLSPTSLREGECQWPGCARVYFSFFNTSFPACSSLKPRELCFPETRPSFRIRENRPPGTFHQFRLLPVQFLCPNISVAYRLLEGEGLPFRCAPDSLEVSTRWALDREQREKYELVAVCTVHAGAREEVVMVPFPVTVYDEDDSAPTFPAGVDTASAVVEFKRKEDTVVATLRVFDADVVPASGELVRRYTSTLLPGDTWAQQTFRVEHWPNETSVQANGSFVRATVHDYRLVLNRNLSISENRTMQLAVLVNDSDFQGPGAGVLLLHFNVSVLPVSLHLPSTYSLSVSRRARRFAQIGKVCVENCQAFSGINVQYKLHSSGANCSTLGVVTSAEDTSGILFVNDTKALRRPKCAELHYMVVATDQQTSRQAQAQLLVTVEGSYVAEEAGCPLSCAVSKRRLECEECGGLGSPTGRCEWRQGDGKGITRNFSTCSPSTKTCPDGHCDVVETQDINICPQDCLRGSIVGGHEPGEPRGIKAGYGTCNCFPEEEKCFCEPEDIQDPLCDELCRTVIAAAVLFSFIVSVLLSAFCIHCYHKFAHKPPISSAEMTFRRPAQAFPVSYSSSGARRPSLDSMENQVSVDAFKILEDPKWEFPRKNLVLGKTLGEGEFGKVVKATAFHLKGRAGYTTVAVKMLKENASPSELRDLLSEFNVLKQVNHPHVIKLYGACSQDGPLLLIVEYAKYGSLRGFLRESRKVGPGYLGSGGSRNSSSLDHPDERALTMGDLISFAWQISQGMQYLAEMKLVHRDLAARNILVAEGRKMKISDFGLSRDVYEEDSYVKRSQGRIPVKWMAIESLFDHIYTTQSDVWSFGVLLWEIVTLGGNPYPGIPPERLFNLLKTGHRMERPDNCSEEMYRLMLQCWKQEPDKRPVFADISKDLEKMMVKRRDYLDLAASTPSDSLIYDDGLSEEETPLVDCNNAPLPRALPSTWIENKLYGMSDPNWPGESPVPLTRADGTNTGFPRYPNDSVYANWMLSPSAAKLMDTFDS

Question: `COc1ccc(CNC(=O)[C@H]2[C@@H]3CN(c4ccc(-c5cc(OCC(C)(C)O)cn6ncc(C#N)c56)cn4)C[C@@H]32)cn1` [Example 119, (1R,5S,6r)-3-(5-(3-cyano-6-(2-hydroxy-2-methylpropoxy)pyrazolo[1,5-a]pyridin-4-yl)pyridin-2-yl)-N-((6-methoxypyridin-3-yl)methyl)-3-azabicyclo[3.1.0]hexane-6-carboxamide] was tested. Which IC50 (human RET kinase) did it give?
Answer: ≤ 0.01 µM

Question: What about the GI50 (BAF3-KIF5B-RET cells) of the same molecule?
Answer: 0.05 to 0.1 µM

Question: `CC(C)(O)COc1cc(-c2cnc(N3C4CC5CC3CC(NC(=O)c3ncccc3Cl)(C5)C4)cn2)c2c(C#N)cnn2c1` [Example 164, 3-chloro-N-((1R,3S,5s,7s)-2-(5-(3-cyano-6-(2-hydroxy-2-methylpropoxy)pyrazolo[1,5-a]pyridin-4-yl)pyrazin-2-yl)-2-azaadamantan-5-yl)picolinamide] was tested. Which IC50 (human RET kinase) did it give?
Answer: ≤ 0.01 µM

Question: What about the GI50 (BAF3-KIF5B-RET cells) of the same molecule?
Answer: ≤ 0.01 µM

Question: Which results are given for `CC(C)(O)COc1cc(-c2cnc(N3C4CC5CC3CC(NC=O)(C5)C4)cn2)c2c(C#N)cnn2c1` [Example 160, N-((1R,3S,5s,7s)-2-(5-(3-cyano-6-(2-hydroxy-2-methylpropoxy)pyrazolo[1,5-a]pyridin-4-yl)pyrazin-2-yl)-2-azaadamantan-5-yl)formamide]?
Answer: IC50 (human RET kinase): 0.01 to 0.05 µM; GI50 (BAF3-KIF5B-RET cells): > 0.1 µM

Question: `COc1ccc(C(=O)N[C@@H]2C[C@@H]3CN(c4cnc(-c5cc(OCC(C)(C)O)cn6ncc(C#N)c56)cn4)C[C@@H]3C2)cn1` [Example 110, N-((3aR,5r,6aS)-2-(5-(3-cyano-6-(2-hydroxy-2-methylpropoxy)pyrazolo[1,5-a]pyridin-4-yl)pyrazin-2-yl)octahydrocyclopenta[c]pyrrol-5-yl)-6-methoxynicotinamide] was tested. Which IC50 (human RET kinase) did it give?
Answer: 0.05 to 0.1 µM

Question: What about the GI50 (BAF3-KIF5B-RET cells) of the same molecule?
Answer: > 0.1 µM

Question: For `COc1ccc(C(=O)NC23CC4CC(C2)N(c2ccc(-c5cc(-c6cnn(C)c6)cn6ncc(C#N)c56)cn2)C(C4)C3)cn1` [Example 188, N-((1R,3S,5s,7s)-2-(5-(3-cyano-6-(1-methyl-1H-pyrazol-4-yl)pyrazolo[1,5-a]pyridin-4-yl)pyridin-2-yl)-2-azaadainantan-5-yl)-6-methoxynicotinamide], which IC50 (human RET kinase) is on record?
Answer: ≤ 0.01 µM

Question: What about the GI50 (BAF3-KIF5B-RET cells) of the same molecule?
Answer: ≤ 0.01 µM

Question: Which results are given for `CC(C)(O)COc1cc(-c2cnc(N3C[C@@H]4[C@@H](CNC(=O)c5c(F)cccc5Cl)[C@@H]4C3)cn2)c2c(C#N)cnn2c1` [Example 154, 2-chloro-N-(((1R,5S,6s)-3-(5-(3-cyano-6-(2-hydroxy-2-methylpropoxy)pyrazolo[1,5-a]pyridin-4-yl)pyrazin-2-yl)-3-azabicyclo[3.1.0]hexan-6-yl)methyl)-6-fluorobenzamide]?
Answer: IC50 (human RET kinase): ≤ 0.01 µM; GI50 (BAF3-KIF5B-RET cells): 0.01 to 0.05 µM

Question: With `COc1ccc(CC(=O)N[C@H]2[C@@H]3CN(c4ccc(-c5cc(OCC(C)(C)O)cn6ncc(C#N)c56)cn4)C[C@@H]32)cn1` [Example 190, N-((1R,5S,6s)-3-(5-(3-cyano-6-(2-hydroxy-2-methylpropoxy)pyrazolo[1,5-a]pyridin-4-yl)pyridin-2-yl)-3-azabicyclo[3.1.0]hexan-6-yl)-2-(6-methoxypyridin-3-yl)acetamide] as the molecule, how does the IC50 (human RET kinase) read?
Answer: 0.05 to 0.1 µM

Question: And the GI50 (BAF3-KIF5B-RET cells)?
Answer: > 0.1 µM

Question: How did the IC50 (human RET kinase) turn out when `CC(C)(O)COc1cc(-c2cnc(N3C4CC5CC3CC(O)(C5)C4)cn2)c2c(C#N)cnn2c1` [Example 157, 4-(5-((1R,3S,5s,7s)-5-hydroxy-2-azaadamantan-2-yl)pyrazin-2-yl)-6-(2-hydroxy-2-methylpropoxy)pyrazolo[1,5-a]pyridine-3-carbonitrile] was run?
Answer: 0.01 to 0.05 µM

Question: What about the GI50 (BAF3-KIF5B-RET cells) of the same molecule?
Answer: > 0.1 µM

Question: What does the source list for `COc1cccnc1C(=O)NC[C@@H]1[C@H]2CN(c3ccc(-c4cc(-c5cnn(C)c5)cn5ncc(C#N)c45)cn3)C[C@@H]12` [Example 191, N-(((1R,5S,6s)-3-(5-(3-cyano-6-(1-methyl-1H-pyrazol-4-yl)pyrazolo[1,5-a]pyridin-4-yl)pyridin-2-yl)-3-azabicyclo[3.1.0]hexan-6-yl)methyl)-3-methoxypicolinamide]?
Answer: IC50 (human RET kinase): ≤ 0.01 µM; GI50 (BAF3-KIF5B-RET cells): ≤ 0.01 µM

Question: Which IC50 (human RET kinase) does the source give for `CC(C)(O)COc1cc(-c2cnc(N3C[C@H]4CN(Cc5ccc(C#N)nc5)C[C@H]4C3)cn2)c2c(C#N)cnn2c1` [Example 177, 4-(5-((3aR,6aS)-5-((6-cyanopyridin-3-yl)methyl)hexahydropyrrolo[3,4-c]pyrrol-2(1H)-yl)pyrazin-2-yl)-6-(2-hydroxy-2-methylpropoxy)pyrazolo[1,5-a]pyridine-3-carbonitrile] here?
Answer: 0.05 to 0.1 µM

Question: What about the GI50 (BAF3-KIF5B-RET cells) of the same molecule?
Answer: > 0.1 µM

Question: For `CC(C)(O)COc1cc(-c2ccc(N3C[C@@H]4[C@H](C3)[C@H]4C(C)(C)NC(=O)c3ncccc3Cl)nc2)c2c(C#N)cnn2c1` [Example 129, 3-chloro-N-(2-((1R,5S,6r)-3-(5-(3-cyano-6-(2-hydroxy-2-methylpropoxy)pyrazolo[1,5-a]pyridin-4-yl)pyridin-2-yl)-3-azabicyclo[3.1.0]hexan-6-yl)propan-2-yl)picolinamide], which IC50 (human RET kinase) is on record?
Answer: 0.01 to 0.05 µM

Question: What about the GI50 (BAF3-KIF5B-RET cells) of the same molecule?
Answer: 0.05 to 0.1 µM

Question: `COc1cc(C(=O)NC[C@@H]2[C@H]3CN(c4ccc(-c5cc(-c6cnn(C)c6)cn6ncc(C#N)c56)cn4)C[C@@H]23)ccn1` [Example 194, N-(((1R,5S,6s)-3-(5-(3-cyano-6-(1-methyl-1H-pyrazol-4-yl)pyrazolo[1,5-a]pyridin-4-yl)pyridin-2-yl)-3-azabicyclo[3.1.0]hexan-6-yl)methyl)-2-methoxyisonicotinamide] was tested. Which IC50 (human RET kinase) did it give?
Answer: ≤ 0.01 µM

Question: What about the GI50 (BAF3-KIF5B-RET cells) of the same molecule?
Answer: 0.01 to 0.05 µM

Question: What does the source list for `Cn1cc(-c2cc(-c3cnc(N4C5CC6CC4CC(NC=O)(C6)C5)cn3)c3c(C#N)cnn3c2)cn1` [Example 107, N-((1R,3S,5s,7s)-2-(5-(3-cyano-6-(1-methyl-1H-pyrazol-4-yl)pyrazolo[1,5-a]pyridin-4-yl)pyrazin-2-yl)-2-azaadamantan-5-yl)formamide]?
Answer: IC50 (human RET kinase): ≤ 0.01 µM; GI50 (BAF3-KIF5B-RET cells): 0.01 to 0.05 µM

Question: Which results are given for `Cn1cc(-c2cc(-c3ccc(N4C[C@@H]5C[C@@](O)(Cc6ccccn6)C[C@@H]5C4)nc3)c3c(C#N)cnn3c2)cn1` [Example 158, 4-(6-((3aR,5r,6aS)-5-hydroxy-5-(pyridin-2-ylmethyl)hexahydrocyclopenta[c]pyrrol-2(1H)-yl)pyridin-3-yl)-6-(1-methyl-1H-pyrazol-4-yl)pyrazolo[1,5-a]pyridine-3-carbonitrile]?
Answer: IC50 (human RET kinase): ≤ 0.01 µM; GI50 (BAF3-KIF5B-RET cells): 0.01 to 0.05 µM

Question: Which IC50 (human RET kinase) does the source give for `CC(C)(O)COc1cc(-c2cnc(N3C4CC5CC3CC(N)(C5)C4)cn2)c2c(C#N)cnn2c1` [Example 162, 4-(5-((1R,3S,5s,7s)-5-amino-2-azaadamantan-2-yl)pyrazin-2-yl)-6-(2-hydroxy-2-methylpropoxy)pyrazolo[1,5-a]pyridine-3-carbonitrile] here?
Answer: 0.01 to 0.05 µM

Question: What about the GI50 (BAF3-KIF5B-RET cells) of the same molecule?
Answer: > 0.1 µM

Question: What does the source list for `COc1ccc(C(=O)NC23CC4CC(C2)N(c2cnc(-c5cc(OCC(C)(C)O)cn6ncc(C#N)c56)cn2)C(C4)C3)cn1` [Example 166, N-((1R,3S,5s,7s)-2-(5-(3-cyano-6-(2-hydroxy-2-methylpropoxy)pyrazolo[1,5-a]pyridin-4-yl)pyrazin-2-yl)-2-azaadamantan-5-yl)-6-methoxynicotinamide]?
Answer: IC50 (human RET kinase): ≤ 0.01 µM; GI50 (BAF3-KIF5B-RET cells): 0.01 to 0.05 µM

Question: How did the IC50 (human RET kinase) turn out when `COc1ccc(NC(=O)[C@@]2(C)C[C@H]3CN(c4ccc(-c5cc(OCC(C)(C)O)cn6ncc(C#N)c56)cn4)C[C@H]3C2)cn1` [Example 116, (3aR,5r,6aS)-2-(5-(3-cyano-6-(2-hydroxy-2-methylpropoxy)pyrazolo[1,5-a]pyridin-4-yl)pyridin-2-yl)-N-(6-methoxypyridin-3-yl)-5-methyloctahydrocyclopenta[c]pyrrole-5-carboxamide] was run?
Answer: 0.01 to 0.05 µM

Question: What about the GI50 (BAF3-KIF5B-RET cells) of the same molecule?
Answer: > 0.1 µM

Question: For `Cn1cc(-c2cc(-c3ccc(N4C[C@@H]5[C@@H](CNC(=O)c6ccnc(C(F)(F)F)c6)[C@@H]5C4)nc3)c3c(C#N)cnn3c2)cn1` [Example 196, N-(((1R,5S,6s)-3-(5-(3-cyano-6-(1-methyl-1H-pyrazol-4-yl)pyrazolo[1,5-a]pyridin-4-yl)pyridin-2-yl)-3-azabicyclo[3.1.0]hexan-6-yl)methyl)-2-(trifluoromethyl)isonicotinamide], which IC50 (human RET kinase) is on record?
Answer: ≤ 0.01 µM

Question: And the GI50 (BAF3-KIF5B-RET cells)?
Answer: 0.05 to 0.1 µM

Question: `COc1cc(C(=O)N[C@]2(C)C[C@H]3CN(c4cnc(-c5cc(-c6cnn(C)c6)cn6ncc(C#N)c56)cn4)C[C@H]3C2)ccn1` [Example 150, N-((3aR,5s,6aS)-2-(5-(3-cyano-6-(1-methyl-1H-pyrazol-4-yl)pyrazolo[1,5-a]pyridin-4-yl)pyrazin-2-yl)-5-methyloctahydrocyclopenta[c]pyrrol-5-yl)-2-methoxyisonicotinamide] was tested. Which IC50 (human RET kinase) did it give?
Answer: ≤ 0.01 µM

Question: And the GI50 (BAF3-KIF5B-RET cells)?
Answer: ≤ 0.01 µM
